The record followed here is ChEMBL document CHEMBL1201862, “PubChem BioAssay data set” (2004).

Each structure is given as a SMILES string. Activity calls are given as the source filed them.

Experiment [1] concerns the target T1, Estrogen receptor (Homo sapiens, UniProt P03372).
T1 sequence (P03372 whole entry): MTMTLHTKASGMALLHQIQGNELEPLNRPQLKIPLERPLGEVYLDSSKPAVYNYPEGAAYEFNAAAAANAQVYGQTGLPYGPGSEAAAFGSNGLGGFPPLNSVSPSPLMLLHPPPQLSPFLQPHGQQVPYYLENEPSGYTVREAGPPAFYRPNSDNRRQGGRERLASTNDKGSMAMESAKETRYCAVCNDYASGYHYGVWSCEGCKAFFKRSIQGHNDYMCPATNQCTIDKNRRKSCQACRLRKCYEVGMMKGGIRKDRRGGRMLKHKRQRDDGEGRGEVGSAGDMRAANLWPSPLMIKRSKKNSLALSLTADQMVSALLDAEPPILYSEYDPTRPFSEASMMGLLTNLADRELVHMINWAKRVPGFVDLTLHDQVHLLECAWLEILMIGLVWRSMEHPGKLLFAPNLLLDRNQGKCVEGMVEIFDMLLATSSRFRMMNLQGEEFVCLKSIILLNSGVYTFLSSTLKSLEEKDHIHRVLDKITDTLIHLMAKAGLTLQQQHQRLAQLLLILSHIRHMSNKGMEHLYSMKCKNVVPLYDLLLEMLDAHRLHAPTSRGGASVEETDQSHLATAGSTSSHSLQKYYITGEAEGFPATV

Experiment [2] deals with Protein Wnt-3a (Mus musculus, UniProt P27467). The experiment in a line: Wnt3a-driven reporter signaling inhibition, dose response, selectivity assay for Gli-SUFU antagonist project, Wnt-LIGHT cells, luminescence (AID 651570).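 Note: Wnt-LIGHT reporter cells stimulated with conditioned medium from Wnt3a-producing cells.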 Type of experiment: functional. As to conditions: read-out: IC50_Mean.
Chain of Protein Wnt-3a (P27467 whole entry): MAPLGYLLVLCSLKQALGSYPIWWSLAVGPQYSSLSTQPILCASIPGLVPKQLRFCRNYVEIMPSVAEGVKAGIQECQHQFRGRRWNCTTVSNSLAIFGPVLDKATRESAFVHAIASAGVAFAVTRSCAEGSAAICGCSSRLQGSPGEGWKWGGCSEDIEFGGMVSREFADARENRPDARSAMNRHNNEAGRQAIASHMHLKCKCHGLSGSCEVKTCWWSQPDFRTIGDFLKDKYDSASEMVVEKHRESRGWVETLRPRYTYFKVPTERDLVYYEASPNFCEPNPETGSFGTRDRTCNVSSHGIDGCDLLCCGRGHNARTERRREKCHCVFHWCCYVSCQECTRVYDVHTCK
Experiment [3] addresses T2, Sentrin-specific protease 8 (Homo sapiens, UniProt Q96LD8).
T2 sequence (Q96LD8 whole entry): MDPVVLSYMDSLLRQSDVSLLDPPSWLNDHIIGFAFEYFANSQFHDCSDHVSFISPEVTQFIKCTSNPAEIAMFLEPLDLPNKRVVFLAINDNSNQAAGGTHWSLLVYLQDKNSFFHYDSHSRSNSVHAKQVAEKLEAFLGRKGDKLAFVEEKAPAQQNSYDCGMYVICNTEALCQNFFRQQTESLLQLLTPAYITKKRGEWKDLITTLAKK
Type of experiment: functional.

Experiment [4] deals with T3, Caspase-3 (Homo sapiens, UniProt P42574).
T3 sequence (P42574 whole entry): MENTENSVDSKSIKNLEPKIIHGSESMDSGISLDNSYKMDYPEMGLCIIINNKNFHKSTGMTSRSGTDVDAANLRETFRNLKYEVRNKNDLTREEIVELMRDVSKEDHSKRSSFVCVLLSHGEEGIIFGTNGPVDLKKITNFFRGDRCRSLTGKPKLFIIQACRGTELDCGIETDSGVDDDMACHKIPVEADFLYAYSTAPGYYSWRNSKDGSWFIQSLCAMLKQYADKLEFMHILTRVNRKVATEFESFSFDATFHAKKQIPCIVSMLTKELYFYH
The experiment is classed as functional.

The target of experiment [5] is T4, Aminopeptidase N (Plasmodium falciparum FcB1/Columbia, UniProt O96935).
T4 sequence (O96935 whole entry): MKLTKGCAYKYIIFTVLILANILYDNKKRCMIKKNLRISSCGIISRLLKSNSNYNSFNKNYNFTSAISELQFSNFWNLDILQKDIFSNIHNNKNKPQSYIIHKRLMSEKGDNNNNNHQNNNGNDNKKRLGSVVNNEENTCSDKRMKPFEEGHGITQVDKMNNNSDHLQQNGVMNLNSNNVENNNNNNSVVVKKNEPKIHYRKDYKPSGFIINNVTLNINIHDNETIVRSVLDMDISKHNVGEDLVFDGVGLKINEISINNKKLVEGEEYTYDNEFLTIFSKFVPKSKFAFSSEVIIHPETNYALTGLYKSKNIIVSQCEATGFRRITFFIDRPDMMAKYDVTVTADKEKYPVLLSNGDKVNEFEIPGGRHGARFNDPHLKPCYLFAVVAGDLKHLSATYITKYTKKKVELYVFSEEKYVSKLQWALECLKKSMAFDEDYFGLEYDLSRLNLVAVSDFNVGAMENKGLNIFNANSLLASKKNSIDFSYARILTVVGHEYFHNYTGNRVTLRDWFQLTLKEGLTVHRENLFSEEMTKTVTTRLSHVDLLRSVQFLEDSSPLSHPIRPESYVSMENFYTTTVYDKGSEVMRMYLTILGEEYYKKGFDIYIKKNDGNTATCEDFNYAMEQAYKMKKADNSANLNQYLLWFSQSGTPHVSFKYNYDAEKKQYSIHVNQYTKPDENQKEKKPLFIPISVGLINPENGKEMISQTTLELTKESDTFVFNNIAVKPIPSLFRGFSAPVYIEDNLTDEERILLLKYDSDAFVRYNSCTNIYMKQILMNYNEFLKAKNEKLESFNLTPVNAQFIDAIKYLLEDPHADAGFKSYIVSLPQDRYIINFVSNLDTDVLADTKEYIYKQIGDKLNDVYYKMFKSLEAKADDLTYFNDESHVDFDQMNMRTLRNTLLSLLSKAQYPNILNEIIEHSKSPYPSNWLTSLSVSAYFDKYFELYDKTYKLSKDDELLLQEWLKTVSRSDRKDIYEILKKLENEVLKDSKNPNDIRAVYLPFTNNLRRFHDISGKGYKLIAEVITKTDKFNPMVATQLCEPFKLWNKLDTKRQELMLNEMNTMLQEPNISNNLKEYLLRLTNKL
The experiment in a line: P. falciparum M1AAP inhibitors, biochemical, fluorogenic H-Leu-NHMec substrate, 1536-well (AID 1445). Also on record: species or system Plasmodium falciparum 3D7, 3D7.

For experiment [6], the target named is T5, Sentrin-specific protease 7 (Homo sapiens, UniProt Q9BQF6).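 Note: Luminescence-based dose-response confirmation of ultra-high-throughput screening hits, measuring inhibition of SENP7.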
T5 sequence (Q9BQF6 whole entry): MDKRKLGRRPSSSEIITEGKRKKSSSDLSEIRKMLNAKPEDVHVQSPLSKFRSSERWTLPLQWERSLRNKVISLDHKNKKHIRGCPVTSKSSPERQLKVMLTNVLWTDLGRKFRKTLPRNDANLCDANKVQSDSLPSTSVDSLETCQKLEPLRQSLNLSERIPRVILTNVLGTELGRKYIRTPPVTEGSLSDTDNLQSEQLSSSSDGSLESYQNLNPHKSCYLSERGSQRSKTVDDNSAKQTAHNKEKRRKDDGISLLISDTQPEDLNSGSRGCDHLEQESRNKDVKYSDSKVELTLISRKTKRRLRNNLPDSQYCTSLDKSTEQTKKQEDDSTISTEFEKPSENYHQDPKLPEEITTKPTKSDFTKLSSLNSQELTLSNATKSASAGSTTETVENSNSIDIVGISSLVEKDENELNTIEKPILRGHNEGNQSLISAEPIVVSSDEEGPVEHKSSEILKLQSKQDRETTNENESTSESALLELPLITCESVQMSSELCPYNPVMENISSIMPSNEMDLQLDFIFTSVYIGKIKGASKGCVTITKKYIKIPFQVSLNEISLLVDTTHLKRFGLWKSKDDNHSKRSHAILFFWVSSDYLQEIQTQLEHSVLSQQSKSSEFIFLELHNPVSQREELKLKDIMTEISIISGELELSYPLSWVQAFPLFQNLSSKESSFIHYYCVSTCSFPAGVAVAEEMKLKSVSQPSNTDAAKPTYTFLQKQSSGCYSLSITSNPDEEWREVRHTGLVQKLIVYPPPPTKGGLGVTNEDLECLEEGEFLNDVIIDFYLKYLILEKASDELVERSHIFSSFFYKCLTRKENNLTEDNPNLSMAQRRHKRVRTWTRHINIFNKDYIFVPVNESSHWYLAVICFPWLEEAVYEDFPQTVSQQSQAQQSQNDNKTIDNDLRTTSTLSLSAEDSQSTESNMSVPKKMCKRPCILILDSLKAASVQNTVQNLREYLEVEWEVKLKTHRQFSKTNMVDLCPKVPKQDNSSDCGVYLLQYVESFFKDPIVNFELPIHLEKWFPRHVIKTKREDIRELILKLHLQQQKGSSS
The experiment is classed as functional.

For experiment [7], the target named is T6, Sentrin-specific protease 6 (Homo sapiens, UniProt Q9GZR1).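 Note: Luminescence-based dose-response confirmatory assay of SENP6 inhibition, following up an ultra-high-throughput screen.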
T6 sequence (Q9GZR1 whole entry): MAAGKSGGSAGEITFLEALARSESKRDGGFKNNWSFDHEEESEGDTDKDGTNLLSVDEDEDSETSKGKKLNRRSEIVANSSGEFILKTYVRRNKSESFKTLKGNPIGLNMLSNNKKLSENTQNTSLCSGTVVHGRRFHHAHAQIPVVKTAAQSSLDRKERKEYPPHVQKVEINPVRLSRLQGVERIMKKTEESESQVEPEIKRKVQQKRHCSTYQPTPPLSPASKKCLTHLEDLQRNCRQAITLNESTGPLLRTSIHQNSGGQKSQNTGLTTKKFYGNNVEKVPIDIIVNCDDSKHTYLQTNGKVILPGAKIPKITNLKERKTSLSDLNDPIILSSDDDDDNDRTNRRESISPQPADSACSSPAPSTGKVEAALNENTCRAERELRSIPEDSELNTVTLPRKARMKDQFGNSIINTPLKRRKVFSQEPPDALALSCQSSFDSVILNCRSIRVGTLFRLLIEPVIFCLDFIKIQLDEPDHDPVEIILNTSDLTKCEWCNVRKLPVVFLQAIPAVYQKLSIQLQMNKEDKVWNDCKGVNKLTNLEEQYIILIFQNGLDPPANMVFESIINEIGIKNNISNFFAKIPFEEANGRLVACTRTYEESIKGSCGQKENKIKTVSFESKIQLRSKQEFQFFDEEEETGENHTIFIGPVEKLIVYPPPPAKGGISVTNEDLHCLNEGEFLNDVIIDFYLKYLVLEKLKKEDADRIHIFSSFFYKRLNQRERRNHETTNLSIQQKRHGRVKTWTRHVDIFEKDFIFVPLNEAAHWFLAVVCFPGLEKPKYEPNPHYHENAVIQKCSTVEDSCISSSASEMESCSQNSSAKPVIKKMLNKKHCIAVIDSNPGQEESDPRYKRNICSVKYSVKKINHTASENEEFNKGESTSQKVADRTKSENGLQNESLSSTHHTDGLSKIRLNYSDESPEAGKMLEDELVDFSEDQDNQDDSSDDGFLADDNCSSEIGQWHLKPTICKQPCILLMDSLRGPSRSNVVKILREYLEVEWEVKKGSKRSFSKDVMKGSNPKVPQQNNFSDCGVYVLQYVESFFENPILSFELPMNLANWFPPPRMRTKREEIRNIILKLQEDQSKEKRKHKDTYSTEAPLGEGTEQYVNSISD
The experiment is classed as functional.

Experiment [8] has as its target Estrogen receptor beta (Homo sapiens, UniProt Q92731).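 Note: recombinant ER-beta bound to coactivator SRC1 peptide in presence of estradiol agonist; inhibitors block coactivator peptide binding and lower the FRET signal.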
The target of experiment [9] is 5-hydroxytryptamine receptor 2A (Mus musculus, UniProt P35363). Type of experiment: functional, cell-based.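 Note: CHO-K1 cells with tagged receptor and beta-arrestin; agonist potency measured as compound-induced activation of the receptor.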
Chain of 5-hydroxytryptamine receptor 2A (P35363 whole entry): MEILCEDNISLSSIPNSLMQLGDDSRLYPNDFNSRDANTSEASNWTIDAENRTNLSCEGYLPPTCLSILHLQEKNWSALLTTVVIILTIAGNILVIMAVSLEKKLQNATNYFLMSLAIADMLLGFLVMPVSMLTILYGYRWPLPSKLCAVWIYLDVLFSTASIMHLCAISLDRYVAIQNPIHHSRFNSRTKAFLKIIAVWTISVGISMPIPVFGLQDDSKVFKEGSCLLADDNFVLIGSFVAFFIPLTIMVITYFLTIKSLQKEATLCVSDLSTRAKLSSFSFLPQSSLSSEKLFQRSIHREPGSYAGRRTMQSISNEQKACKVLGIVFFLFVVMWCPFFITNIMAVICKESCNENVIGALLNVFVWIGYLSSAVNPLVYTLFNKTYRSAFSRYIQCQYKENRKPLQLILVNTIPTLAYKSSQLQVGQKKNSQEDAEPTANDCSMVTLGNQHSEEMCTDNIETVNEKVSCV
For experiment [10], the target named is Mu-type opioid receptor (Homo sapiens, UniProt P35372). Type of experiment: functional, cell-based.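 Note: U2OS cells with beta-arrestin recruitment to OPRM1 by beta-gal complementation.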
Chain of Mu-type opioid receptor (P35372 whole entry): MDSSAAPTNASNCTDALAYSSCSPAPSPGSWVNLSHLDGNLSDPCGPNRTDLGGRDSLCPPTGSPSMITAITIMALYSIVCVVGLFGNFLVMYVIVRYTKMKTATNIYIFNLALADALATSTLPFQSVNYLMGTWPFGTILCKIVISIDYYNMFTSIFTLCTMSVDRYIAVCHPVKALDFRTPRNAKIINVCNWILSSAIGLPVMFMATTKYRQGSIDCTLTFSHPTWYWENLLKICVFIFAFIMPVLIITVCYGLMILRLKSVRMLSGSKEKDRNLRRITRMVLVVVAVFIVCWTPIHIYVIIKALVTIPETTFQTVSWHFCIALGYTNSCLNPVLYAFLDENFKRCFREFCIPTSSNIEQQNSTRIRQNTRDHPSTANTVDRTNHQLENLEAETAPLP
Experiment [11] is described as follows: MC4R antagonists, dose response, counter-screen for LGR2 antagonist project, cell-based, plate reader, cherry pick (AID 743444).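 Note: transfected HEK 293 cells stimulated with alpha-MSH peptide; potency of inhibitors of the alpha-MSH evoked signal.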 The experiment is classed as functional. (In general: The purpose of a counterscreen is to sort out artefacts and off-target activity.)
Experiment [12] can be described thus: LGR2 antagonists, dose response, cell-based, HEK293, CRE-luciferase reporter, cherry pick, set 2 (AID 743343).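 Note: transfected cells were stimulated with diluted bursicon conditioned medium after compound addition.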 Type of experiment: functional. For orientation: Reporter assays use an easily measured gene product as a stand-in for the process of interest.
Experiment [13] can be described thus: A549 cell cytotoxicity, dose response, cytotoxicity control, plate reader, cherry-pick, antagonist series (AID 743412). Type of experiment: functional, cell-based.
Experiment [14] is described as follows: THP-1 cell cytotoxicity, dose response, cytotoxicity control for Vif-APOBEC3G degradation inhibitor project, THP-1 cells (AID 1117359). The experiment is classed as functional. As to conditions: Human immunodeficiency virus 1, THP-1.
The target of experiment [15] is Induced myeloid leukemia cell differentiation protein Mcl-1 (Homo sapiens, UniProt Q07820). The experiment is classed as functional.
Chain of Induced myeloid leukemia cell differentiation protein Mcl-1 (Q07820 whole entry): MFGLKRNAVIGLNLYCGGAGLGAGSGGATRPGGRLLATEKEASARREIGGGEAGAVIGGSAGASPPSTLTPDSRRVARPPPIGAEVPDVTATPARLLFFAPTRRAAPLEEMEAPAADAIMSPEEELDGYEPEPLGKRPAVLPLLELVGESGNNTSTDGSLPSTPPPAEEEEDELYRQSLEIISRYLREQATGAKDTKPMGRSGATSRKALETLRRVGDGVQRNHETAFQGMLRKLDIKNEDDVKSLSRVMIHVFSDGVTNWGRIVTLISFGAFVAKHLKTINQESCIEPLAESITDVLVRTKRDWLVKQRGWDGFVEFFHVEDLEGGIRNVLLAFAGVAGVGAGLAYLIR

Chain of Estrogen receptor beta (Q92731 whole entry): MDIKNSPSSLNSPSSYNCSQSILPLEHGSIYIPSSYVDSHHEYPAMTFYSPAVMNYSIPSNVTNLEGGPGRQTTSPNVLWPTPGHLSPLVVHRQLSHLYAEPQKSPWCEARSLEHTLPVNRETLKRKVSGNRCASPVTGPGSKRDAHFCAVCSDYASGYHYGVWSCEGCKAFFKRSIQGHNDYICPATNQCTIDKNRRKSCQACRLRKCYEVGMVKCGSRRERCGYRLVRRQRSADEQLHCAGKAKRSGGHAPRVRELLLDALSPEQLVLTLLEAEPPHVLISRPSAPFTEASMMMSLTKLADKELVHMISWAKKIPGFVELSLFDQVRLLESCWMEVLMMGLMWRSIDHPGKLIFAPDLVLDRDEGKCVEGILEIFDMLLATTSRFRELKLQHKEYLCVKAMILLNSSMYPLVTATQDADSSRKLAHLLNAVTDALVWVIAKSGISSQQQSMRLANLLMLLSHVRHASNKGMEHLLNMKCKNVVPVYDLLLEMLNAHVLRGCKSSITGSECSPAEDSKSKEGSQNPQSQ

As to `CCn1c2ccccc2c2cc(NC(=O)CSc3nnc(-c4ccc(OC)cc4)n3N)ccc21`, the IC50 in experiment [1] was 12.2 µM (active).
With `COc1ccc2c(c1)c(C)cc[n+]2Cc1ccccc1`, the IC50 in experiment [2] is 2.07 µM (active).
`O=C(O)COc1ccccc1/C=N/NC(=O)CSc1nnc(SCc2ccc(Cl)cc2)s1`: the IC50 in experiment [3] is > 100 µM (inactive); in experiment [4] it was 41.1 µM (active); in [5], 16.6 µM (active); in experiment [6], 15.8 µM (active); in [7] it was 22.5 µM (active).
As to `O=C(CCc1ccccc1)Nc1ccc(N2CCOCC2)cc1`, the IC50 in [8] is > 50 µM (not active).
As for `Cc1ccc(CN2CCN(c3ncccn3)CC2)o1`, the EC50 is 4 µM (active) in [9] and 92.4 µM (inactive) in [10].
On to `CC1CC(C(F)(F)C(F)(F)F)n2nc(C(=O)O)cc2N1` (stereo unspecified), for which the IC50 in experiment [1] is 19.9 µM (active).
As for `CC(C)(C)c1ccc(-n2ncc3c2CCCC3NC(=O)CCN2CCCC2=O)cc1` (stereo unspecified), the IC50 in experiment [2] was 0.973 µM (active).
Consider `Cc1cccc(-n2c(SCc3cc(=O)n4c(C)cccc4n3)nc3nncc-3c2O)c1`, for which the IC50 in experiment [8] is > 50 µM (not active).
Turning to `c1ccc(-c2cn3c([n+]2-c2ccccc2)CCC3)cc1`, the IC50 in [2] is 5.16 µM (active).
On to `O=[N+]([O-])c1cccnc1N1CCN(Cc2ccc3c(c2)OCO3)CC1`, for which the EC50 in [9] was 0.00977 µM (active); in experiment [10] it was 92.5 µM (inactive).
For the molecule `CCOC(=O)N1CCN(Cc2ccc3c(c2)OCO3)CC1`, the EC50 in [9] was 1.19 µM (active); in experiment [10] it was 92.4 µM (inactive).
Regarding `CC(=O)N1CCCCN2[C@H](CO)[C@H](c3ccc(-c4cccc(C)c4)cc3)[C@@H]2C1`, the AC50 in [11] is 9.64 µM (active); in experiment [12], 19.2 µM (active); in experiment [13], > 52 µM (inactive).
Consider `CC(C)(C)c1ccc(NC(=O)N2CCN(c3ccc([N+](=O)[O-])cn3)CC2)cc1`, for which the CC50 in experiment [14] was 37.5 µM (active).
Regarding `CCOC(=O)Cc1nn(C)c(=O)c2ccccc12`, the IC50 in [8] is listed as > 50 µM (not active).
Take `CCOC(=O)c1ccc(NC(=O)CSc2nnc(CNc3ccc(OC)cc3)n2C)cc1`: in experiment [1], the IC50 was > 50 µM (not active).
With `COc1cc(/C=N\Nc2nc(-c3ccc(C)cc3)c(NC(C)=O)s2)ccc1O`, the IC50 in experiment [15] is given as 3.02 µM (not active).
On to `CC(C)n1c(-c2ccco2)cs/c1=N/c1cccnc1`, for which the IC50 in [2] is 10.5 µM (active).

As a reminder, the EC50 is the concentration at which the effect is half-maximal. Usually AC50 stands for the midpoint of the concentration-response curve, whichever way the signal moves. By CC50 is commonly meant the concentration giving 50% cytotoxicity.
